# From patent publication US10406136B2 (priority 2013, dated 2019)
# How the values were obtained:
# [1] = molecular target: T1, neuraminidase (EC. 3.2.1.8, C. perfringens, SIGMA, N2876) (Clostridium perfringens, UniProt A0A0H2YQR1); format: biochemical; settings: Lineweaver-Burk and Dixon plots
# [2] = molecular target: T1, neuraminidase (EC. 3.2.1.8, C. perfringens, SIGMA, N2876); format: biochemical
# T1 sequence (A0A0H2YQR1 1-694): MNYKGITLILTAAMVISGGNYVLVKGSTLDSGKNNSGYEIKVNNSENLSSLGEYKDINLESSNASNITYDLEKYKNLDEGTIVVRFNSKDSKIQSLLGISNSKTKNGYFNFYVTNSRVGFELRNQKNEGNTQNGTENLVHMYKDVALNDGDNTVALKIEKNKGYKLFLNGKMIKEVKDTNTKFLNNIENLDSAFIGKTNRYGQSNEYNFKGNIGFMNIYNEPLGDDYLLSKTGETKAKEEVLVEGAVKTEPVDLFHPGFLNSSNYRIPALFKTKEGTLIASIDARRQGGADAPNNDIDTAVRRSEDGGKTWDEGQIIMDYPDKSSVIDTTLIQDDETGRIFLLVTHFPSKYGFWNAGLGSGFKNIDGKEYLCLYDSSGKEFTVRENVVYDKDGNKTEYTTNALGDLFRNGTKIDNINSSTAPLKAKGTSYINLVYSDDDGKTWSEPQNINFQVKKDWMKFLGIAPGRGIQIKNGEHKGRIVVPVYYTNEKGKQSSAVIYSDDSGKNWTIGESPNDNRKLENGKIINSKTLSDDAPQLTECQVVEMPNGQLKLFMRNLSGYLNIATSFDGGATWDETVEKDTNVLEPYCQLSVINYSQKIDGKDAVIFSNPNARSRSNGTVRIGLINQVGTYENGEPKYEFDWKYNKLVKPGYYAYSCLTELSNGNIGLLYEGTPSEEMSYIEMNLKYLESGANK
Structure (SMILES),Inhibition (type) [1],IC50 [2] [µM]
"COc1cc(C2Oc3cc(O)c(C/C=C(\C)CCC=C(C)C)c(O)c3C(=O)[C@@H]2O)ccc1O (stereo partly shown) [Compound 1, 3′-O-methyldiplacol]",Competitive,–
"COc1ccc(C2Oc3cc(O)c(C/C=C(\C)CCC=C(C)C)c(O)c3C(=O)[C@@H]2O)cc1O (stereo partly shown) [Compound 2, 4′-O-methyldiplacol]",Competitive,–
"COc1cc(C2CC(=O)c3c(cc(O)c(C/C=C(\C)CCC=C(C)C)c3O)O2)ccc1O (stereo not shown) [Compound 4, 3′-O-methyldiplacone]",Competitive,–
"COc1ccc(C2CC(=O)c3c(cc(O)c(C/C=C(\C)CCC=C(C)C)c3O)O2)cc1O (stereo not shown) [Compound 5, 4′-O-methyldiplacone]",Competitive,12.9 ± 0.4
"COc1c(O)cc(C2CC(=O)c3c(cc(O)c(C/C=C(\C)CCC=C(C)C)c3O)O2)cc1O (stereo not shown) [Compound 6, 6-geranyl-3′,5,5′,7-tetrahydroxy-4′-methoxyflavanone]",Competitive,–
"CC(C)=CCC/C(C)=C/Cc1c(O)cc2c(c1O)C(=O)CC(c1ccc(O)cc1)O2 (stereo not shown) [Compound 7, mimulone]",Competitive,–
"CC(C)=CCC/C(C)=C/Cc1c(O)cc2c(c1O)C(=O)CC(c1ccc(O)c(O)c1)O2 (stereo not shown) [Compound 8, diplacone]",Competitive,0.11 ± 0.003
"COc1cc(C2CC(=O)c3c(cc(O)c(C/C=C(\C)CCC=C(C)C)c3O)O2)cc(OC)c1O (stereo not shown) [Compound 9, 6-geranyl-4′,5,7-trihydroxy-3′,5′-dimethoxyflavanone]",Competitive,–
